Measurements as given in patent US20140017701A1, “CHIMERIC PDK1 KINASES” (priority 2011, published 2014).

How the values were obtained:
PDK1/PKCζ chimera = target: T1, PDK1/PKCζ chimera (Homo sapiens, UniProt O15530, F157L/I118V/I119H/L113V/Q292A/R131K/T128Q/T148C/V124I/Y288G); assay: Activity assay with PDK1/PKCζ chimera; type: biochemical; conditions: PDK1 50-359/PKCζ chimera, PDK1[P-P-ζ]
T1 construct: His (N); made in house; host or cells: insect cells
T1 sequence (O15530 50-359 L113V/I118V/I119H/V124I/T128Q/R131K/T148C/F157L/Y288G/Q292A): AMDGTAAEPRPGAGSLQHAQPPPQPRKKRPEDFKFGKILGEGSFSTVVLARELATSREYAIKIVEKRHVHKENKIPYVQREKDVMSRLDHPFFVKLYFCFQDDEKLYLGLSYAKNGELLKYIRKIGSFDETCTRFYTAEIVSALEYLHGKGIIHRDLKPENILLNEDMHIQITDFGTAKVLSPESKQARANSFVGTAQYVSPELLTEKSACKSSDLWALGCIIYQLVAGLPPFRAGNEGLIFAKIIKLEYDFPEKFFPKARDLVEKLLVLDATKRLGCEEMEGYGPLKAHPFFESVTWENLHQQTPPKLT
Procedure: The protein kinase activity assays were performed essentially as previously described (Engel, M. et al. Embo J 25, 5469-80 (2006)). The assays were done in a 96-well format and 4 μl aliquots spotted on P81 phospho-cellulose papers (Whatman) using epMotion 5070 (Eppendorf), washed in 0.01% phosphoric acid, dried, and then exposed and analyzed using PhosphoImager technology (FLA-9000 Starion, Fujifilm). Atypical PKC (aPKC) activity assays were performed in a total volume of 20 μl containing 50 mM Tris-HCl pH 7.5, 0.05 mg/ml BSA, 0.1% (v/v) 2-mercaptoethanol, 10 mM MgCl2, 100 μM [γ^32P]ATP (5-50 cpm/pmol), 0.003% Brij, 30-50 ng of aPKC, and MBP (10 μM) or PSRtide (100 μM) as the substrate. After 15 min pre-incubation, the kinase reaction was started by addition of 6 μl of an ATP-Mg mix. When required, lipid activator (LA) phosphatidylserine (100 ng) or PKC lipid activator mix (1×) was included in the pre-incubation. Low basal activity and consistent activation of 1-592 PKCζ and 498 PKCζ by LA was obtained when the pre-incubation time was started by addition of the whole mix on the enzyme.
The substrates were T308tide (200 μM) for PDK1, Kemptide (100 μM) for PKA, and Crosstide (100 μM) for SGK, PKB, S6K, and PRK2. The activity assays for PKCα, β, θ, and δ were performed in the presence of PKC lipid activator mix (1×) using 3 μM of histone H1 as substrate.

[1] = target: T2, GST-PDK1 1-556 with PIF-pocket mutated to mimic PKCz (Homo sapiens, UniProt O15530, F157L/I118V/I119H/L113V/R131K/T128Q/T148C/V124I); assay: Activity assay with full length GST-PDK1 1-556 mutated to mimic the PIF-pocket of PKCz; type: biochemical; conditions: without the dm mutation
T2 construct: a GST-PDK1 1-556 (full length, without the dm mutation); made in house; host or cells: HEK293 (general method for GST-fused kinases)
T2 sequence (O15530 1-556 L113V/I118V/I119H/V124I/T128Q/R131K/T148C/F157L): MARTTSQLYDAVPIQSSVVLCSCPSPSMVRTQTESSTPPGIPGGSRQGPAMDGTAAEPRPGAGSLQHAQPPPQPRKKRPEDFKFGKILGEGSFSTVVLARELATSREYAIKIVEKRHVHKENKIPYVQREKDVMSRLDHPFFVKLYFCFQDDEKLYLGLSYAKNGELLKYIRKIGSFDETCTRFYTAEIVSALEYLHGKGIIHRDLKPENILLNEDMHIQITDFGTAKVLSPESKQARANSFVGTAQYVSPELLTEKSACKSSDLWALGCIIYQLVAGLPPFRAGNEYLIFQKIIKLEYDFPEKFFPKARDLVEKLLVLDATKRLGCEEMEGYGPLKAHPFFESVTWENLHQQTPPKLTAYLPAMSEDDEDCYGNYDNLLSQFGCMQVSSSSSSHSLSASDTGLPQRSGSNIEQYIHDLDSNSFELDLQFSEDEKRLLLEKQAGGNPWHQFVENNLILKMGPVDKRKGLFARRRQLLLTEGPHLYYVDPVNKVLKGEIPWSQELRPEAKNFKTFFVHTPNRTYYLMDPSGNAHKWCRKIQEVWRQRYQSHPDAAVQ
Text: Thus, non-mutated PDK1 50-359 protein and other constructs of PDK1 lacking the (dm) mutations, when mutated at the PIF-pocket to mimic the PIF-pocket of other AGC kinases, are also expected to transduce the conformational change similarly to the dmPDK1 50-359. […] The preferred construct for mutagenesis to create the chimeric proteins is dmPDK1 50-359. Also preferred is the use of PDK1 50-359 which can be produced in high quality for crystallization studies or other suitable constructs, for example PDK1 76-359 that corresponds to a sequence of aminoacids observed in the crystals of PDK1 in different crystal packings.

With `Cl.O=C(O)CC(Cc1nc2cc(-c3ccccc3)ccc2[nH]1)c1ccc(Cl)cc1` (centres unmarked) [PS168] the “Effect on PDK1/PKCζ chimera activity” value (PDK1/PKCζ chimera) was “inhibits” and the “Effect on activity of GST-PDK1 1-556 mutated to mimic PIF-pocket of PKCz” value [1] was “inhibited”.
